Reference: patent US20190364943A1, “NOVEL COMPOSITIONS FOR FLAVOR ENHANCEMENT” (International Flavors & Fragrances Inc., priority 2016, published 2019)

Legend:
[1] = Taste description of the compound alone in water; assay type: in vivo, human; conditions: 1 ppm
[2] = tested on: sweet taste; assay: Effect on sweet taste, intensity scale 0 to 10 (panelists); assay type: in vivo, human; conditions: 20 ppm in sucrose in water (2.5% by weight); scale 0 to 10, control anchored as 5
Method: (§1) The effect of guanine and its nucleobase analog adenine on other basic tastes was examined and compared. The control solutions were prepared as follows:
(i) A sweet control solution of sucrose in water (2.5% by weight);
(§2) Respective test solutions of adenine and guanine were prepared in different control solutions (2 or 20 ppm).
(§3) The taste perception of each sample was evaluated by a group of panelists using an intensity scale of 0 to 10, where 0=none, 5=moderate, 10=extremely strong. Panelists were instructed to anchor the intensity of the control solutions as 5 on the scale. The intensity scores were analyzed using one-way ANOVA with Post Hoc LSD multiple comparisons. Average intensity scores are reported in the following:
(§4) The effect of guanosine and its corresponding nucleotide, guanosine 5′-monophosphate (GMP), on additional basic tastes was examined and compared. The control solutions of sweet, bitter, salty and umami tastes were prepared as above in Example II. Respective test solutions of guanosine and GMP were prepared in different control solutions (2 or 20 ppm).

[3] = tested on: sour taste; assay: Paired comparison of sour taste, test sample solution vs citric acid base solution (sensory panel); assay type: in vivo, human; conditions: for Sour taste enhancement, in words (table footnote): 5 and 100 ppb in base solution (citric acid 400 ppm); for Result (sour taste vs base solution): paired comparison
Method: The enhancement of sour taste by guanine and guanosine was subsequently examined. A base solution of citric acid (HOC(COOH)(CH2COOH)2) in water (400 ppm) was prepared and used in the following examples of the present invention. Test sample solutions of guanine and guanosine were prepared in the base solution (each of 5 and 100 ppb, respectively).
(§5) Sample pairs (a base solution and a test sample solution) were presented in a blind and pseudorandom order to a sensory panel. The enhancement of sour taste was recorded based on the percentage of the panelists who ranked the sample sourer. Binomial statistical analysis was used to compare the enhancement of sour taste for each sample pair. Significance was at 95% Confidence Interval (p<0.05). The test results are as follows:
The effect of botanical extract such as Chrysanthemum parthenium extract on sour taste was examined. A test sample solution of the extract in the base solution (15 ppm) was prepared.
Sensory evaluation was conducted using the paired comparison method. A base solution and a test sample solution, unidentifiable by using 3-digit codes, were presented in a blind and pseudorandom order to a sensory panel. The enhancement of sour taste was recorded based on the percentage of the panelists who ranked the sample sourer. The data were analyzed using binomial statistical analysis.

[4] = tested on: bitter taste; assay: Effect on bitter taste, intensity scale 0 to 10 (panelists); assay type: in vivo, human; conditions: 2 ppm in caffeine in water (0.05% by weight); scale 0 to 10, control anchored as 5
Method: as §1
(ii) A bitter control solution of caffeine in water (0.05% by weight);
as §2, §3, §4

[5] = tested on: sour taste; assay: Sour taste intensity score in citric acid base solution, scale 0 to 10 (panelists); assay type: in vivo, human; conditions: scale 0 to 10, base anchored as 5
Method: The effect of adenine and guanine on sour taste was examined and compared. Respective test sample solutions of adenine and guanine were prepared in the base solution (each of 5 and 100 ppb, respectively).
as §3, with “The sour taste perception” for “The taste perception”, “of the base solution as 5” for “of the control solutions as 5”, “the following: […]” for “the following:”

[6] = tested on: umami taste; assay: Effect on umami taste, intensity scale 0 to 10 (panelists); assay type: in vivo, human; conditions: 20 ppm in MSG in water (0.05% by weight); scale 0 to 10, control anchored as 5
Method: as §1
(iv) An umami control solution of monosodium glutamate (MSG) in water (0.05% by weight).
as §2, §3, §4

[7] = tested on: salty taste; assay: Effect on salty taste, intensity scale 0 to 10 (panelists); assay type: in vivo, human; conditions: 20 ppm in sodium chloride in water (0.3% by weight); scale 0 to 10, control anchored as 5
Method: as §1
(iii) A salty control solution of sodium chloride in water (0.3% by weight); and
as §2, §3, §4

[8] = tested on: sour taste; assay: Paired comparison of sour taste against control solution of citric acid 450 ppm (sensory panel); assay type: in vivo, human
Method: A control sample solution of citric acid in water (450 ppm) and a test sample solution of guanosine in the base solution (1.25 ppm) were prepared. Sample pairs of (i) a base solution and a control sample solution; and (ii) a test sample solution and a control sample solution were each presented in a blind and pseudorandom order to a sensory panel. The enhancement of sour taste was recorded based on the percentage of the panelists who ranked the sample sourer.

[9] = pH level of sample solutions; assay type: physicochemical
[10] = tested on: sour taste; assay: Paired comparison of sour taste, GMP solution vs guanosine solution (sensory panel); assay type: in vivo, human
Method: The effect of guanosine and GMP on sour taste was examined and compared. Respective test sample solutions of GMP and guanosine were prepared in the base solution (each of 5 and 100 ppb, respectively).
as §5, with “(a GMP” for “(a base”, “a guanosine” for “a test sample”, “(p<0.05).” for “(p<0.05). The test results are as follows:”

[11] = 5 ppb in base solution (citric acid in water, 400 ppm)
[12] = 100 ppb in base solution (citric acid in water, 400 ppm)
[13] = 5 ppb in base solution (citric acid 400 ppm)
[14] = 100 ppb in base solution (citric acid 400 ppm)
[15] = guanosine 1.25 ppm in base solution (citric acid 400 ppm)

SMILES | Sour taste of the compound itself [1] | Taste description [1] | Sweet, average intensity score [2] | Sour taste enhancement, in words (table footnote) [3] | Result (sour taste vs base solution) [3, 11] | Result (sour taste vs base solution) [3, 12] | Bitter, average intensity score [4] | Intensity Score (sour taste) [5, 13] | Intensity Score (sour taste) [5, 14] | Umami, average intensity score [6] | Salty, average intensity score [7] | Sour taste enhancement and pH, in words [8, 15] | Sour taste enhancement compared with additional citric acid, in words [8, 15] | Panelist Selection (%), ranked sourer ([8]; test (citric acid 400 ppm + guanosine 1.25 ppm) vs control (citric acid 450 ppm)) | pH Level ([9]; test solution: citric acid 400 ppm + guanosine 1.25 ppm (base alone pH 3.19)) | Result (which solution of the pair tasted sourer) ([10]; 5 ppb each in base solution (citric acid 400 ppm)) | Result (which solution of the pair tasted sourer) ([10]; 100 ppb each in base solution (citric acid 400 ppm)) | Panelist Selection (%), ranked sourer ([8]; control (citric acid 450 ppm) vs base (citric acid 400 ppm)) | Panelist Selection (%), ranked sourer ([8]; control (citric acid 450 ppm) vs test (citric acid 400 ppm + guanosine 1.25 ppm)) | pH Level ([9]; control solution: citric acid in water, 450 ppm)
Nc1nc2nc[nH]c2c(=O)[nH]1 [Guanine, guanine] | Neither guanine nor guanosine possessed sour taste | somewhat astringent, mouth-drying and mouth-coating | 4.80 | *Guanine and guanosine provided intense and lasting sour taste enhancement. | Sourer than the base solution | Sourer than the base solution | 6.50 | 6.44 | 7.08 | 4.82 | 5.06 |  |  |  |  |  |  |  |  | 
Nc1nc2c(ncn2[C@@H]2O[C@H](CO)[C@@H](O)[C@H]2O)c(=O)[nH]1 [Guanosine, guanosine] | Neither guanine nor guanosine possessed sour taste | somewhat astringent, mouth-drying and slightly bitter | 5.52 | *Guanine and guanosine provided intense and lasting sour taste enhancement. | Sourer than the base solution | Sourer than the base solution | 7.00 |  |  | 4.98 | 5.22 | enhanced sour taste without decreasing the pH level | greater than that was achieved by 50 ppm citric acid | 100% | 3.20 | Guanosine solution tasted sourer | Guanosine solution tasted sourer |  |  | 
Nc1ncnc2nc[nH]c12 [Adenine, adenine, reference compound] |  |  | 5.76 |  |  |  | 6.33 | 5.14 | 5.73 | 5.02 | 5.16 |  |  |  |  |  |  |  |  | 
O=C(O)CC(O)(CC(=O)O)C(=O)O [citric acid, reference compound] |  |  |  |  |  |  |  |  |  |  |  |  |  |  |  |  |  | 100% | 0% | 3.17
Nc1nc2c(ncn2[C@@H]2O[C@H](COP(=O)(O)O)[C@@H](O)[C@H]2O)c(=O)[nH]1 [GMP, guanosine 5′-monophosphate, reference compound] |  |  | 5.42 |  |  |  | 6.50 |  |  | 9.60 | 5.34 |  |  |  |  |  |  |  |  | 
